Data on twelve compounds can be found in ChEMBL document CHEMBL1138912, “Dipeptidyl nitriles as human dipeptidyl peptidase I inhibitors” (Bioorg Med Chem Lett, 2006).

Active and inactive are the calls of the source. No cut-off for these calls is given here. A value given as a limit tells only on which side of the number the result lay.

Data set [1] can be described thus: Metabolic stability in rat liver microsomes after 15 min. It is filed as ADME, Microsome. The settings on record: read-out: Stability.
Data set [2] deals with T1, Dipeptidyl peptidase 1 (Homo sapiens, UniProt P53634). In words: Inhibition of human DPP1.
In data set [3] the target is T1, Dipeptidyl peptidase 1. Put plainly: Residual activity at human DPP1 at 10 uM.
A further data set has as its target Procathepsin L (Homo sapiens, UniProt P07711). Put plainly: Inhibition of Cathepsin L.
A further data set addresses T2, Pro-cathepsin H (Homo sapiens, UniProt P09668).
T2 sequence (P09668 whole entry): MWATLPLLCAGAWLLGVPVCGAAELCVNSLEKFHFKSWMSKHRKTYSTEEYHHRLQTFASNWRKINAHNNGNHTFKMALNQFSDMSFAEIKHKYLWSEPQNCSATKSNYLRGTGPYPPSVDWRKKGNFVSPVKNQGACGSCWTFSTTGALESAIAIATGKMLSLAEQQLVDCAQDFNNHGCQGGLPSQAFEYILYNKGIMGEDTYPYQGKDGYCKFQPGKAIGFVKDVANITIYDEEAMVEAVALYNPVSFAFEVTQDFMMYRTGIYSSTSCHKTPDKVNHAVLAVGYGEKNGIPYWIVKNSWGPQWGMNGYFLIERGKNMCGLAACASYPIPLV
In words: Inhibition of Cathepsin H.

The target in a further data set is Cathepsin B (Homo sapiens, UniProt P07858). Put plainly: Inhibition of Cathepsin B.
The target in a further data set is Cytochrome P450 2C9 (Homo sapiens, UniProt P11712). In words: Inhibition of CYP2C9. It is filed as ADME.
The target in the next data set is Cytochrome P450 2C19 (Homo sapiens, UniProt P33261). In words: Inhibition of CYP2C19. The class given is ADME.
The target in data set [4] is T1, Dipeptidyl peptidase 1. In words: Inhibition of human DPP1 at 20 uM.

T1 sequence (P53634 25-134 limits assumed): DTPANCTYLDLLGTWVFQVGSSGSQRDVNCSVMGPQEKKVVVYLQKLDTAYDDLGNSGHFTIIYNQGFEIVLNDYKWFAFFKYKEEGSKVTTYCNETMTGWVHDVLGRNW
T1 sequence (P53634 231-394 limits assumed): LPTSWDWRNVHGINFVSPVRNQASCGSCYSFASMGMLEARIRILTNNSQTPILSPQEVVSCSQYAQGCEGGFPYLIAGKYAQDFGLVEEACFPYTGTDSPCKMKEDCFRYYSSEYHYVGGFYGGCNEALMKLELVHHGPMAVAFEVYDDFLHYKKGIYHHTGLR
T1 sequence (P53634 395-463 limits assumed): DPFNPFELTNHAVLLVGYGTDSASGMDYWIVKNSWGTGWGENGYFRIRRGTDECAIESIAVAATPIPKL
Cytochrome P450 2C19, sequence (P33261 whole entry): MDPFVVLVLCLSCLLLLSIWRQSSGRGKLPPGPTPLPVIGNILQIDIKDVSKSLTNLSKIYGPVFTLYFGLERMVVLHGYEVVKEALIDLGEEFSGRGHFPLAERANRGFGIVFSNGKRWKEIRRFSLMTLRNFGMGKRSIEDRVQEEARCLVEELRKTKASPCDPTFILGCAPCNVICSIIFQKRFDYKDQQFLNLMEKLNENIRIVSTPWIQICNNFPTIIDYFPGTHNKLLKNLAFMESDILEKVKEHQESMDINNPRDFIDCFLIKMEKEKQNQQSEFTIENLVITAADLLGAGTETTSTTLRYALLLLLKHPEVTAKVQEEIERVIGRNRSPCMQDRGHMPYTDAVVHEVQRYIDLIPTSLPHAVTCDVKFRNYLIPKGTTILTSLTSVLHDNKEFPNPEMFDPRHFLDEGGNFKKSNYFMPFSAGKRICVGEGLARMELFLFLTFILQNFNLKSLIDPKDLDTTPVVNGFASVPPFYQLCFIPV
Cytochrome P450 2C9, sequence (P11712 whole entry): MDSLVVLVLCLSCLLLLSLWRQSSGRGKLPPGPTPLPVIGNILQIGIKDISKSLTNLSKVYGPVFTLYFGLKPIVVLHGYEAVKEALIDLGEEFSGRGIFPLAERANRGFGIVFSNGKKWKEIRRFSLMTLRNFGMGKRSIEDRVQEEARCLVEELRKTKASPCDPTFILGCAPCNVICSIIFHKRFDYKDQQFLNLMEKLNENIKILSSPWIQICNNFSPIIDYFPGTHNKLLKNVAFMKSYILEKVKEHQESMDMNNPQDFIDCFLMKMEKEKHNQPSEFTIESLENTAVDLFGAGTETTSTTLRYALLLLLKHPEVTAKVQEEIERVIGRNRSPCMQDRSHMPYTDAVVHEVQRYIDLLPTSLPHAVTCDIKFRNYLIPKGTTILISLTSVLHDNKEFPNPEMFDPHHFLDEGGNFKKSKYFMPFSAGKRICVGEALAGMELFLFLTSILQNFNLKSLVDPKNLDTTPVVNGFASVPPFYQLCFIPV
Procathepsin L, sequence (P07711 whole entry): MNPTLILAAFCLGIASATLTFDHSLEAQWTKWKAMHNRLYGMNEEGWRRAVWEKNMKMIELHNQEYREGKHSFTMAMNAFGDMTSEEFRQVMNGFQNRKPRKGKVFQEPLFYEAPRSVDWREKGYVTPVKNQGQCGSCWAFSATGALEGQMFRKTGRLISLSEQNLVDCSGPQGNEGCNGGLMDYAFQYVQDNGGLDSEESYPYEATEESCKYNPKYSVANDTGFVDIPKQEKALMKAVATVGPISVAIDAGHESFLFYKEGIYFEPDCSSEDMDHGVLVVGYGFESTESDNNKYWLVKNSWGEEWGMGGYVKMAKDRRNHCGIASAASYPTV

As to `N#CC(Cc1ccccc1)NC(=O)[C@@H](N)Cc1ccccc1` (stereo in doubt; 8), the remaining at 0.25 h in [1] worked out at 45%. Besides, inhibition against Dipeptidyl peptidase 1 [2] was half-maximal at 418 nM (IC50).

Take `CC[C@H](N)C(=O)N[C@H](C#N)CCc1ccccc1`: the remaining at 0.25 h in data set [1] was found to be 74%. 822 nM corresponded to half-maximal inhibition against Dipeptidyl peptidase 1 [2] (IC50).

Consider `CC[C@H](N)C(=O)N[C@H](C#N)C/C=C/c1ccccc1`, for which the IC50 (commonly the concentration needed to halve the response being measured) on Dipeptidyl peptidase 1 [2] came out at 137 nM.

As to `N#C[C@H](Cc1ccccc1)NC(=O)[C@@H]1CCCN1`, the remaining at 0.25 h in data set [1] worked out at 39%. Besides, at Dipeptidyl peptidase 1 [2], it took 9640 nM to reach half-maximal inhibition (IC50).

As for `N#CC(Cc1ccccc1)NC(=O)[C@@H](N)Cc1ccccc1` (single isomer, unassigned; isomer B), the half-maximal inhibitory concentration (IC50) at Dipeptidyl peptidase 1 [2] was 6300 nM.

As for `CC[C@H](N)C(=O)N(C)[C@H](C#N)Cc1ccccc1`, the Activity at Dipeptidyl peptidase 1 [3] was found to be 94%.

Regarding `CC[C@H](N)C(=O)N[C@H](C#N)Cc1ccc(-c2ccccc2)cc1`, the IC50 against Procathepsin L is more than 10000 nM; against Pro-cathepsin H, more than 10000 nM; against Cathepsin B, more than 10000 nM; against Cytochrome P450 2C9, more than 20000 nM; against Cytochrome P450 2C19 it was more than 20000 nM.

On to `CC[C@H](N)C(=O)N[C@H](C#N)Cc1ccccc1`, for which, in [1], the remaining at 0.25 h was 80%. Moreover, the concentration for half-maximal inhibition (IC50) at Dipeptidyl peptidase 1 [2] is 172 nM.

Regarding `CC[C@H](N)C(=O)N[C@H](C#N)Cc1ccc(Cl)cc1`, the remaining at 0.25 h in data set [1] amounted to 70%. The compound also gave a concentration for half-maximal inhibition (IC50) against Dipeptidyl peptidase 1 [2] of 96 nM.

`N#CC(Cc1ccccc1)NC(=O)[C@@H](N)Cc1ccccc1` (stereo in doubt) registered a half-inhibitory concentration (IC50) at Dipeptidyl peptidase 1 [2] of 294 nM.

The compound `N#C[C@H](Cc1ccccc1)NC(=O)CN` displayed an IC50 against Dipeptidyl peptidase 1 [2] of 4790 nM.

On to `N#C[C@H](Cc1ccccc1)N1CC[C@H](N)C1=O`, for which, at Dipeptidyl peptidase 1 [4], the inhibition result was “inactive”.
